# Data: patent US3979511A, “Inhibitors of reverse transcriptase enzymes” (Abbott Laboratories, priority 1974, dated 1976)
# Key:
# [1] = target: T1, reverse transcriptase of Rous sarcoma virus (Rous sarcoma virus - Prague C, UniProt P03354); assay: Inhibition of reverse transcriptase activity in RSV particles (3H-thymidine triphosphate incorporation); assay type: biochemical; details: for inhibition at 400 µg/mL: 400 μg/ml., read-out: Percent Inhibition
# T1 construct: alpha/beta heterodimer cut from Gag-Pol polyprotein; 3H-TTP incorporation
# T1 sequence (P03354 709-1567): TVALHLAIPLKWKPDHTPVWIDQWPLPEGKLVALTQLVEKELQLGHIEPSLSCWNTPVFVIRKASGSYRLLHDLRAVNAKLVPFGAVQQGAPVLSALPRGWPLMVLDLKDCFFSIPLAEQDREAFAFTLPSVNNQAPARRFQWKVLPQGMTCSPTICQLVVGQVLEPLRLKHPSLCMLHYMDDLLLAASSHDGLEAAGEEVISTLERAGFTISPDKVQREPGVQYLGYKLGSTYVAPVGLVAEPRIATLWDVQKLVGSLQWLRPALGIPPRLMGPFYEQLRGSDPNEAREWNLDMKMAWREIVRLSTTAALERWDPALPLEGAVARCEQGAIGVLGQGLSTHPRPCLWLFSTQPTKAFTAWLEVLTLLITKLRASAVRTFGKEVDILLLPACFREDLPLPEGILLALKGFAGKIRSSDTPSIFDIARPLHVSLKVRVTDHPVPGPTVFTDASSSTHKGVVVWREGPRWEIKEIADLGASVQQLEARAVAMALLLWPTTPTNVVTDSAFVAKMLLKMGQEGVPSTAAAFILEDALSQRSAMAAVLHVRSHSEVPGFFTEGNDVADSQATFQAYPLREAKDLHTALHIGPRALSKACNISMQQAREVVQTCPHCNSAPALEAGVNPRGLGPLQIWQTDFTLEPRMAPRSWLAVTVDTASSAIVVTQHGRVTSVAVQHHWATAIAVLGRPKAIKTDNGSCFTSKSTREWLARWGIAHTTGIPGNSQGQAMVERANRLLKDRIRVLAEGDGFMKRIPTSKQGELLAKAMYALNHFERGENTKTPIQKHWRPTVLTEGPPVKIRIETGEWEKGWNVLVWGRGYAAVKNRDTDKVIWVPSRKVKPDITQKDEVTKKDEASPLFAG
# Procedure: Inhibition was directly related to drug concentration. […] Reverse transcriptase activities were measured from the incorporation of ^3 H-thymidine triphosphate into trichloroacetic acid insoluble counts according to a published method (Nature, 227, 563 (1970). The drug was dissolved in dimethylsulfoxide at a concentration of 10 mg./ml. ##SPC3##
# Degrees of the inhibition are listed below in Table 1.
# Rous sarcoma virus [2] = assay: Blocking of transformation (focus formation) of chick embryonic fibroblasts by Rous sarcoma virus in tissue culture; assay type: cell-based
# Procedure: In tissue culture, the effect of 9-0-methyloximinyl erythromycin A on the blocking of transformation of chick embryonic fibroblasts by Rous sarcoma virus is shown in Table 2. […] The assay was carried out according to a published method (J. Gen. Virol. I, 85 (1970).
# Rous sarcoma virus [3] = assay: Mortality of chicks infected intra-abdominally with Rous sarcoma virus; assay type: in vivo, chickens; details: for Probability (Fisher's exact probability for proportions): Virus + Drug I vs Virus; for Alive / Dead: Virus + Drug I, 200 mg./kg. by gavage every other day, 25 birds per group
# From the text: (§1) To test the effectiveness of the present compounds, 12-day-old Cofal negative chicks were used. The chicks were purchased from SPAFA as 8-day-old embryonated eggs for the tests and comparison of the effectiveness of the inhibitors of the present invention. The chicks were divided into four groups of 25 birds per group:
# (§2) Group 1 - Drug I control (9-0-methyloximinyl erythromycin A;
# Group 2 - Drug I + Rous sarcoma virus (RSV);
# Group 3 - Rous sarcoma virus (infection control);
# Group 4 - Normal control (sham media)
# (§3) The medication with the virus and drug combinations was started by gavage two days before the chicks were infected with the virus. The chickens treated with Drug I, 9-0-methyloximinyl erythromycin A, received 200 mg./kg. every other day for the entire 35 days of the experiment. Each week the chickens were weighed and the drug level was adjusted to accommodate the new weight.
# On the third day the chickens in Groups 2 and 3 were infected intra-abdominally with Rous sarcoma virus (RSV). The inoculum received by each bird was 0.2 ml. and contained approximately 100,000 viral particles. Group 4 received a sham inoculation of 0.2 ml. of sterile tissue culture media.
# (§4) The chickens were observed daily for the 35 days that the experiment was allowed to continue.
# (§5) On the last day, the 35th day, all surviving chickens were sacrificed, weighed and autopsied.
# The results of the experiment are provided in Table 3 which provides the following results: "Statistical Evaluation of Mortality of the Chickens".
# [4] = Drug control group: mortality of uninfected chicks given drug; assay type: in vivo, chickens; details: Drug I control, 200 mg./kg. by gavage every other day, 25 birds
# From the text: as §1, §2, §3, §4, §5
# [5] = period 4 after infection (period = 6 days)
# [6] = period 5 after infection (period = 6 days)
# [7] = period 6 after infection (period = 6 days)
structure (smiles),measurement,setting,value
"CC[C@H]1OC(=O)[C@H](C)[C@@H](O[C@H]2C[C@@](C)(OC)[C@@H](O)[C@H](C)O2)[C@H](C)[C@@H](O[C@@H]2O[C@H](C)C[C@H](N(C)C)[C@H]2O)[C@](C)(O)C[C@@H](C)C(=NOCc2ccc(Cl)c(Cl)c2)[C@H](C)[C@@H](O)[C@H]1C [9-O-(3,4-dichlorobenzyloximinyl) erythromycin B]",inhibition at 400 µg/mL,[1],69%
CCON=C1[C@H](C)C[C@@](C)(O)[C@H](O[C@@H]2O[C@H](C)C[C@H](N(C)C)[C@H]2O)[C@@H](C)[C@H](O[C@H]2C[C@@](C)(OC)[C@@H](O)[C@H](C)O2)[C@@H](C)C(=O)O[C@H](CC)[C@@](C)(O)[C@H](O)[C@H]1C [9-O-ethyloximinyl erythromycin A],inhibition at 400 µg/mL,[1],52%
CC[C@H]1OC(=O)[C@H](C)[C@@H](O[C@H]2C[C@@](C)(OC)[C@@H](O)[C@H](C)O2)[C@H](C)[C@@H](O[C@@H]2O[C@H](C)C[C@H](N(C)C)[C@H]2O)[C@](C)(O)C[C@@H](C)C(=NOC)[C@H](C)[C@@H](O)[C@]1(C)O [9-O-methyloximinyl erythromycin A],inhibition at 1 µg/mL,"Rous sarcoma virus [2]; Rous sarcoma virus, Fibroblast, Drug Concentration 1 μg/ml",39%
same,inhibition at 5 µg/mL,"Rous sarcoma virus [2]; Rous sarcoma virus, Fibroblast, Drug Concentration 5 μg/ml",53%
same,inhibition at 10 µg/mL,"Rous sarcoma virus [2]; Rous sarcoma virus, Fibroblast, Drug Concentration 10 μg/ml",95%
same,inhibition of focus formation,Rous sarcoma virus [2]; drug levels of 5-10 μg/ml,at least 50%
same,inhibition at 400 µg/mL,[1],57%
same,IC50,"[1]; RSV particles, drug dissolved in dimethylsulfoxide, read-out: Fifty percent inhibition of reverse transcriptase activity (converted)",~459 µM
same,tumors in survivors at sacrifice and autopsy,"Rous sarcoma virus [3]; RSV-infected birds that received Drug I 200 mg./kg. every other day, 35th day",had tumors in evidence
same,Probability (Fisher's exact probability for proportions),Rous sarcoma virus [3]; period 4 after infection,.02
same,Probability (Fisher's exact probability for proportions),Rous sarcoma virus [3]; period 5 after infection,.006
same,Probability (Fisher's exact probability for proportions),Rous sarcoma virus [3]; period 6 after infection,.036
same,Alive,Rous sarcoma virus [3]; [5],18
same,Dead,Rous sarcoma virus [3]; [5],7
same,Alive,Rous sarcoma virus [3]; [6],13
same,Dead,Rous sarcoma virus [3]; [6],12
same,Alive,Rous sarcoma virus [3]; [7],8
same,Dead,Rous sarcoma virus [3]; [7],17
same,Alive,[4]; period 4 (period = 6 days),25
same,Dead,[4]; period 4 (period = 6 days),0
same,Alive,[4]; period 5 (period = 6 days),25
same,Dead,[4]; period 5 (period = 6 days),0
same,Alive,[4]; period 6 (period = 6 days),25
same,Dead,[4]; period 6 (period = 6 days),0
CCCON=C1[C@H](C)C[C@@](C)(O)[C@H](O[C@@H]2O[C@H](C)C[C@H](N(C)C)[C@H]2O)[C@@H](C)[C@H](O[C@H]2C[C@@](C)(OC)[C@@H](O)[C@H](C)O2)[C@@H](C)C(=O)O[C@H](CC)[C@@](C)(O)[C@H](O)[C@H]1C [9-O-propyloximinyl erythromycin A],inhibition at 400 µg/mL,[1],47%
